{
  "source": "patent US20190070170A1",
  "about": "“METHOD OF S[…]-1” (Macau University of Science and Technology, priority 2017, published 2019)",
  "type_in_all_cases": "cell-based",
  "key": {"[1]": {"test_system": "mPGES-1", "assay": "mPGES-1 mRNA level in LPS-activated rat peritoneal macrophages (qRT-PCR)", "settings": "SIN 1 h, LPS 12 h", "experimental": "Peritoneal macrophages were cultured in 6-well plates and pre-treated with the indicated concentration of SIN for 1 h, followed by LPS stimulation for another 12 h. RNA was isolated from rat peritoneal macrophages using the Nucleospin RNA kit from Macherey-Nagel (Duren, Germany) according to the manufacturer's instructions. RNA concentration derived from each sample was assessed by NanoDrop UV Spectrophotometer from Thermo Scientific (Asheville, N.C., USA). RNA (1 μg) was reverse transcripted using the transcriptor universal cDNA master reagents from Roche Applied Science (Mannheim, Germany). Gene expression quantification was performed by a high-productivity real-time quantitative PCR ViiA™ 7 machine using SYBR Green reagents from Roche Applied Science (Mannheim, Germany) according a standard protocol recommended by the manufacturer and the cycling parameters were as followed: uracil removal incubation (50° C., 2 min), polymerase activation (95° C., 10 min), 40 cycles of denaturation (95° C., 15 s) and annealing/extension (60° C., 30 s) and a melt curve stage (95° C., 15 s, 60° C., 1 min and 95° C., 15 s).\nRat primers used in the research are listed as follows:\n• The levels of gene expression were quantitated using the 2(−Delta Delta C(T)) method. […]"}, "[2]": {"test_system": "PGI2", "assay": "PGI2 level in culture supernatants of LPS-activated rat peritoneal macrophages (ELISA)", "settings": "LPS-stimulated rat peritoneal macrophages, culture supernatant", "experimental": "(§1) Sprague-Dawley (SD) rats from the University of Hong Kong were housed in cages with free access to food and water. Peritoneal macrophages of SD rats were isolated as described in Liu J. et al., Pharmacological research 2016, 111:303-315. Briefly, untreated rats were sacrificed and after laparotomy, about 50 ml cold sterile Hank's balanced salt solution (HBSS) was used to lavage the peritoneal cavity at twice, and then the peritoneal lavage fluid was collected and centrifuged at 1500 rpm for 10 min. The cell pellets was suspended at a density 1.5×10^6 cells/ml in pre-hearted DMEM medium with 10% heat-inactivated FBS, penicillin G (100 units/ml), streptomycin ([…]), and L-glutamine (2 mM), followed by seeding in 6-well plates at a density of 4.5×10^6 cells and incubation for 2 h. Then the medium were discarded to remove the non-adherent cells. The adherent cells were further washed for two times with pre-heated DMEM medium to remove floating cells. Next, cells were pre-treated with various concentration of SIN for 1 h, followed by stimulation with LPS (1 μg/ml).\nRAW264.7 cells and rat peritoneal macrophages were seeded in a 96-well plate at density of 1.4×10^4 and 1.5×10^5 cells, respectively. […] The optical density was measured at 570 nm against a reference wavelength of 650 nm using a microplate UV/VIS spectrophotometer (Tecan, Mannedorf, Switzerland). […]"}, "[3]": {"test_system": "mPGES-1", "assay": "mPGES-1 protein expression in IL-1β-stimulated A549 cells (western blotting)", "settings": "IL-1β with SIN or DEX for 48 h", "experimental": "RAW264.7 and A549 cell lines were obtained from American Type Culture Collection (ATCC, Manassas, Va., USA) and maintained in DMEM (RAW264.7) or 1640 (A549) medium containing 10% FBS (Gibco-BRL, Grand Island, N.Y., USA) and antibiotics at 37° C. in a humidified atmosphere containing 5% CO2. RAW264.7 cells were plated in 6-well plates at a density of 4×10^5 cells and incubated for 24 h, then the cells were pretreated with different concentrations of SIN for 1 h before stimulating with LPS (100 ng/ml). A549 cells were seeded in 6-well plates at a density of 1×10^5 cells and incubated for 24 h, followed by pretreatment with SIN. A549 cells were then stimulated by IL-1β (1 ng/ml).\nWhole-cell and nuclear proteins were obtained using RIPA lysis buffer (CST, Boston, Mass., USA) and Nuclear and Cytoplasmic Extraction Reagents kit from Thermo Scientific (Asheville, N.C., USA), respectively. For immunoblotting, proteins from whole-cell, cytoplasm, nuclear, and microsomal fractions were separated on SDS-PAGE, then transferred onto a nitrocellulose membrane from GE Healthcare Life Sciences (Buckinghamshire, UK), and incubated with 5% skimmed milk at room temperature for 1 h. […] The levels of protein expression were measured using Odyssey v3.0 software from Li-COR (Lincoln, Nebr., USA)."}, "[4]": {"test_system": "CREB", "assay": "CREB pathway (p-CREB) in LPS-stimulated rat peritoneal macrophages (western blotting)", "settings": "SIN 1 h, LPS 1 μg/ml 15 min or 1 h", "experimental": "as §1\nWhole-cell and nuclear proteins were obtained using RIPA lysis buffer (CST, Boston, Mass., USA) and Nuclear and Cytoplasmic Extraction Reagents kit from Thermo Scientific (Asheville, N.C., USA), respectively. […] The levels of protein expression were measured using Odyssey v3.0 software from Li-COR (Lincoln, Nebr., USA)."}},
  "data": [
    {"smiles": "COC1=C[C@@H]2[C@@H]3Cc4ccc(OC)c(O)c4[C@]2(CCN3C)CC1=O", "note": "[SIN, sinomenine]", "values": [
      {"measurement": "mPGES-1 gene expression (mRNA)", "setting": "[1]", "result": "significantly and dose-dependently inhibited"},
      {"measurement": "level of PGI2", "setting": "[2]", "result": "no significant influence"},
      {"measurement": "mPGES-1 protein expression", "setting": "[3]", "result": "significantly and dose-dependently inhibited"},
      {"measurement": "influence on CREB pathway", "setting": "[4]", "result": "No observable effects"}
    ]}
  ]
}
